Test results reported in patent US10842829B2, “Natural product to improve immunity and combat viral diseases, bacterial diseases, fungal diseases, and cancer diseases” (priority 2017, dated 2020).

Assays:
mycoplasma = experiment: Mycoplasma disease treatment; assay type: in vivo; conditions: three sheep
Method: The experiment was at four sheep farms. The sheep suffered from cough and high temperature (42° C.). When performing autopsy on dead sheep, the congestion in the lungs was clear. […] Ampicillin only affects the cell wall.
Another 10 sick sheep from each farm were isolated and treated with 5 ml of Tylosin and Enrofloxacin.

[1] = system: Streptococcus isolated from cow's milk; experiment: Streptococcus germs cultured in a lab setting
[2] = system: NHDF cells (Normal Human Dermal Fibroblast cell line); experiment: XTT proliferation assay on NHDF cells; assay type: cell-based
Method: FIGS. 20-23 and Tables F1-F4 relate to a study to determine the potency of novel natural extract compounds in inhibiting the proliferation of Normal Human Dermal Fibroblast cell line (NHDF cells). […] In this study: Compound I, III and IV which are arrangements of compound according to the present invention are evaluated in a XTT proliferation assay for 72 hours to determine its potency in inhibiting the proliferation of NHDF cells. Traditionally, the in-vitro determination of toxic effects of unknown compounds has been performed by counting viable cells after staining with a vital dye. The XTT system is a mean of measuring the activity of living cells via mitochondrial dehydrogenases. The XTT method is simple, accurate and yields reproducible results. […] Solutions of XTT, prepared in medium or balances salt solutions without phenol red, are yellowish in colour. Mitochondrial dehydrogenases of viable cells cleave the tetrazolium ring of XTT yielding orange formazon crystals which are soluble in aqueous solutions. The resulting orange colour is spectrophotometrically measured. The bio-reduction is XTT is inefficient but can be potentiated by the addition of an electron coupling agent such as phenazine methosulphate (PMS) to the reaction. An increase or decrease in cell numbers results in a concomitant change in the amount of formazon formed, indicating the degree of cytotoxicity caused by the test material. In the foregoing study the following kits and reagents were used: • Cells: NHDF, a Normal Human Dermal Fibroblast cell line (Lonza) • Media: FGM-2 bullet kit media • Cell culture T75 flasks (BD-Falcon-LAB353136) • 96 well cell clear tissue culture treated plates (BD-Falcon-LAB353072) • Dimethyl Sulphoxide (DMSO) (Sigma-D2650) • XT (Sigma-[…]) • PMS (Sigma-[…]) In the foregoing study, three arrangement of compound according to the present invention, which in FIGS. 20-23 and Tables F1-F4 are designated as compounds I, III and IV, were tested. In the foregoing study, the control or vehicle was sterile deionized water. In regard to experimental procedure, for seeding in a 96-well plate, the cells were re-suspended to a density of […] of complete FGM-2 Bullet kit medium. 80 μL of this cell suspension was added per well to seed 2000 cells per well. […] In the foregoing study, the following points relate to compound dilution and treatment: • 20 μL of stock (100×) was serially diluted (2×) in 20 μL of sterile deionized water. • 20 μL of each dilution was then added in triplicates in the previously seeded 96-well plate. • Cells treated with deionized water served as control. • 100 μL of complete Ham's F12 medium served as media blank for the data analysis. • 200 μL of PBS was added in all corner wells of the assay plate. Plate was then incubated for 72 hours in an incubator with 5% CO2 at 37° C. In the foregoing study, the following points relate to termination: • XTT reagent-1 mg/mL solution of XTT was made in serum-free Ham's F12 medium. […] The data was analyzed using GraphPad Prism Software. In regard to data generation in the foregoing study: • Raw data of OD values was obtained in the form of excel sheet from Victor X5 Multi-label Plate Reader. • Average of media blank and average of control was calculated. • Average media blank was subtracted from each experimental well and control.

[3] = system: HT-1080 cells (fibrosarcoma cell line); experiment: XTT proliferation assay on HT-1080 cells; assay type: cell-based; conditions: Homo sapiens
Pasteurella = Pasteurella disease treatment; conditions: second group of 10 sheep, both antibiotics together

## CC1(C)S[C@@H]2[C@H](NC(=O)[C@H](N)c3ccccc3)C(=O)N2[C@H]1C(=O)O [Ampicillin]
mycoplasma
  outcome of treatment: they were not cured
[1]
  killing of germs: not all germs were killed

## COc1cccc2c1C(=O)c1c(O)c3c(c(O)c1C2=O)C[C@@](O)(C(=O)CO)C[C@@H]3O[C@H]1C[C@H](N)[C@H](O)[C@H](C)O1 [Doxorubicin]
[2]; Doxorubicin 0.000 μM
  % Inhibition: 24.6%
[2]; Homo sapiens, Doxorubicin 0.001 μM
  inhibition at 0.001 µM: 17.9%
[2]; Homo sapiens, Doxorubicin 0.004 μM
  inhibition at 0.004 µM: 25.9%
[2]; Homo sapiens, Doxorubicin 0.01 μM
  inhibition at 0.01 µM: 26.9%
[2]; Homo sapiens, Doxorubicin 0.04 μM
  inhibition at 0.04 µM: 33.9%
[2]; Homo sapiens, Doxorubicin 0.11 μM
  inhibition at 0.11 µM: 37.5%
[2]; Homo sapiens, Doxorubicin 0.33 μM
  inhibition at 0.33 µM: 68.6%
[2]; Homo sapiens, Doxorubicin 1 μM
  inhibition at 1 µM: 86.4%
[2]; Homo sapiens, Doxorubicin 3 μM
  inhibition at 3 µM: 57.1%
[3]; Doxorubicin 0.0002 μM
  inhibition at 0.0002 µM: 16.1%
[3]; Doxorubicin 0.0005 μM
  inhibition at 0.0005 µM: 14.9%
[3]; Doxorubicin 0.0014 μM
  inhibition at 0.0014 µM: 22.1%
[3]; Doxorubicin 0.0041 μM
  inhibition at 0.0041 µM: 28.9%
[3]; Doxorubicin 0.0123 μM
  inhibition at 0.0123 µM: 63.6%
[3]; Doxorubicin 0.0370 μM
  inhibition at 0.037 µM: 76.4%
[3]; Doxorubicin 0.1111 μM
  inhibition at 0.1111 µM: 77.7%
[3]; Doxorubicin 0.3333 μM
  inhibition at 0.3333 µM: 91%
[3]; Doxorubicin 1 μM
  inhibition at 1 µM: 98.2%

## NCC[C@H](O)C(=O)N[C@@H]1C[C@H](N)[C@@H](O[C@H]2O[C@H](CN)[C@@H](O)[C@H](O)[C@H]2O)[C@H](O)[C@H]1O[C@H]1O[C@H](CO)[C@@H](O)[C@H](N)[C@H]1O [amikacin]
[1]
  killing of germs: not all germs were killed

## CC1=C(C(=O)O)N2C(=O)[C@@H](NC(=O)[C@H](N)c3ccccc3)[C@H]2SC1 [cephalexin]
[1]
  killing of germs: not all germs were killed

## O=C(O)c1cn(C2CC2)c2cc(N3CCNCC3)c(F)cc2c1=O [ciprofloxacin]
[1]
  killing of germs: not all germs were killed

## Cc1onc(-c2ccccc2Cl)c1C(=O)N[C@@H]1C(=O)N2[C@@H]1SC(C)(C)[C@@H]2C(=O)O [cloxacillin]
[1]
  killing of germs: not all germs were killed

## CCN1CCN(c2cc3c(cc2F)c(=O)c(C(=O)O)cn3C2CC2)CC1 [enrofloxacin]
Pasteurella
  speed of improvement versus product group: slower than in the first group
[1]
  killing of germs: not all germs were killed

## CC[C@H]1OC(=O)[C@H](C)[C@@H](O[C@H]2C[C@@](C)(OC)[C@@H](O)[C@H](C)O2)[C@H](C)[C@@H](O[C@@H]2O[C@H](C)C[C@H](N(C)C)[C@H]2O)[C@](C)(O)C[C@@H](C)C(=O)[C@H](C)[C@@H](O)[C@]1(C)O [erythromycin]
[1]
  killing of germs: not all germs were killed

## [H]/N=C(/N)N[C@H]1[C@H](O)[C@@H](O)[C@H](O[C@@H]2O[C@@H](C)[C@](O)(C=O)[C@H]2O[C@@H]2O[C@@H](CO)[C@H](O)[C@@H](O)[C@@H]2NC)[C@@H](N/C(N)=N\[H])[C@@H]1O [streptomycin]
[1]
  killing of germs: not all germs were killed

## Spiramycin
[1]
  killing of germs: not all germs were killed

## Tylozin
[1]
  killing of germs: not all germs were killed

## gentamicin
[1]
  killing of germs: not all germs were killed

## neomycin
[1]
  killing of germs: not all germs were killed

## penicillin
[1]
  killing of germs: not all germs were killed
